{"source": "ChEMBL document CHEMBL1201862", "about": "“PubChem BioAssay data set” (2004)", "experiment_in_all_cases": "inhibition of tumour cell growth, NCI panel, 48 h", "key": {"SK-MEL-28": {"system": "SK-MEL-28"}, "SK-MEL-5": {"system": "SK-MEL-5"}, "HT-29": {"system": "HT-29"}, "OVCAR-5": {"system": "OVCAR-5"}, "CAKI-1": {"system": "CAKI-1"}, "NCI-H460": {"system": "NCI-H460"}, "U-251": {"system": "U-251"}, "UACC-62": {"system": "UACC-62"}, "COLO 205": {"system": "COLO 205"}, "HCT-15": {"system": "HCT-15"}, "SK-OV-3": {"system": "SK-OV-3"}, "SN12C": {"system": "SN12C"}, "A549": {"system": "A549"}, "OVCAR-3": {"system": "OVCAR-3"}, "CCRF-CEM": {"system": "CCRF-CEM"}, "NCI-H226": {"system": "NCI-H226"}, "HL-60": {"system": "HL-60"}}, "note": "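Step 1: Grow cells in 96-well plates. Step 2: Expose to compound for 48 hours at 5 concentrations. Step 3: Interpolate endpoints linearly; if unreached, use highest concentration. GI50: concentration for 50% inhibition of growth.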 Active and inactive are the calls of the source. Rule as the data show it: active = GI50 up to about 1.1 µM and inactive = higher.", "data": [{"smiles": "CC(=O)NN1C(=O)C(Cc2ccccc2)c2ccccc21", "note": "(centres undefined)", "values": [{"measurement": "GI50", "setting": "SK-MEL-28", "value": "> 100 µM (inactive)"}, {"measurement": "GI50", "setting": "SK-MEL-5", "value": "> 100 µM (inactive)"}, {"measurement": "GI50", "setting": "HT-29", "value": "> 100 µM (inactive)"}, {"measurement": "GI50", "setting": "OVCAR-5", "value": "> 100 µM (inactive)"}, {"measurement": "GI50", "setting": "CAKI-1", "value": "> 100 µM (inactive)"}, {"measurement": "GI50", "setting": "NCI-H460", "value": "> 100 µM (inactive)"}, {"measurement": "GI50", "setting": "U-251", "value": "> 100 µM (inactive)"}, {"measurement": "GI50", "setting": "UACC-62", "value": "> 100 µM (inactive)"}, {"measurement": "GI50", "setting": "COLO 205", "value": "> 100 µM (inactive)"}, {"measurement": "GI50", "setting": "HCT-15", "value": "> 100", "unit": "µM"}, {"measurement": "GI50", "setting": "SK-OV-3", "value": "> 100 µM (inactive)"}, {"measurement": "GI50", "setting": "SN12C", "value": "> 100 µM (inactive)"}, {"measurement": "GI50", "setting": "A549", "value": "> 100 µM (inactive)"}, {"measurement": "GI50", "setting": "OVCAR-3", "value": "> 100 µM (inactive)"}, {"measurement": "GI50", "setting": "CCRF-CEM", "value": "> 100 µM (inactive)"}, {"measurement": "GI50", "setting": "NCI-H226", "value": "> 100 µM (inactive)"}]}, {"smiles": "CC(C)(C)c1ccc2c(c1)S(=O)(=O)Nc1ccccc1NS(=O)(=O)c1cc(C(C)(C)C)ccc1OCCOCCOCCO2", "values": [{"measurement": "GI50", "setting": "SK-MEL-28", "value": "> 100 µM (inactive)"}, {"measurement": "GI50", "setting": "SK-MEL-5", "value": "93.8 µM (inactive)"}, {"measurement": "GI50", "setting": "HT-29", "value": "> 100 µM (inactive)"}, {"measurement": "GI50", "setting": "OVCAR-5", "value": "> 100 µM (inactive)"}, {"measurement": "GI50", "setting": "CAKI-1", "value": "97.9 µM (inactive)"}, {"measurement": "GI50", "setting": "NCI-H460", "value": "> 100 µM (inactive)"}, {"measurement": "GI50", "setting": "U-251", "value": "88.5 µM (inactive)"}, {"measurement": "GI50", "setting": "UACC-62", "value": "64.6 µM (inactive)"}, {"measurement": "GI50", "setting": "COLO 205", "value": "> 100 µM (inactive)"}, {"measurement": "GI50", "setting": "HCT-15", "value": "> 100", "unit": "µM"}, {"measurement": "GI50", "setting": "HL-60", "value": "> 100 µM (inactive)"}, {"measurement": "GI50", "setting": "SK-OV-3", "value": "81.1 µM (inactive)"}, {"measurement": "GI50", "setting": "SN12C", "value": "> 100 µM (inactive)"}, {"measurement": "GI50", "setting": "A549", "value": "> 100 µM (inactive)"}, {"measurement": "GI50", "setting": "OVCAR-3", "value": "> 100 µM (inactive)"}, {"measurement": "GI50", "setting": "CCRF-CEM", "value": "> 100 µM (inactive)"}, {"measurement": "GI50", "setting": "NCI-H226", "value": "> 100 µM (inactive)"}]}, {"smiles": "CCSC(SCC)c1cc2c(cc1Br)OCO2", "values": [{"measurement": "GI50", "setting": "SK-MEL-28", "value": "33.2 µM (inactive)"}, {"measurement": "GI50", "setting": "SK-MEL-5", "value": "17.5 µM (inactive)"}, {"measurement": "GI50", "setting": "HT-29", "value": "16.8 µM (inactive)"}, {"measurement": "GI50", "setting": "OVCAR-5", "value": "27.2 µM (inactive)"}, {"measurement": "GI50", "setting": "NCI-H460", "value": "18.5 µM (inactive)"}, {"measurement": "GI50", "setting": "U-251", "value": "17 µM (inactive)"}, {"measurement": "GI50", "setting": "UACC-62", "value": "28.5 µM (inactive)"}, {"measurement": "GI50", "setting": "COLO 205", "value": "15.2 µM (inactive)"}, {"measurement": "GI50", "setting": "HCT-15", "value": 9.64, "unit": "µM"}, {"measurement": "GI50", "setting": "HL-60", "value": "10.1 µM (inactive)"}, {"measurement": "GI50", "setting": "SK-OV-3", "value": "25.2 µM (inactive)"}, {"measurement": "GI50", "setting": "SN12C", "value": "30.5 µM (inactive)"}, {"measurement": "GI50", "setting": "A549", "value": "28.6 µM (inactive)"}, {"measurement": "GI50", "setting": "OVCAR-3", "value": "22.9 µM (inactive)"}, {"measurement": "GI50", "setting": "CCRF-CEM", "value": "16.6 µM (inactive)"}, {"measurement": "GI50", "setting": "NCI-H226", "value": "24.2 µM (inactive)"}]}]}
